Laboratory results published in US6172052A, “17β-acyl-17α-propynyl-11β-arylsteroids and their derivatives having agonist or antagonist hormonal properties” (Research Triangle Institute, priority 1998, dated 2001).

Columns and labels:
[1] = tested on: estrogen-primed, progesterone-stimulated immature female rabbits; assay: In vivo antiprogestational activity, uterine endometrial effects scored according to McPhail; parameters: species or system rabbit; details: oral
Method: In vivo Test. Antiprogestational activity was determined in vivo by dose-response studies in estrogen-primed, progesterone-stimulated immature female rabbits and results were scored according to McPhail (McPhail, J. Physiol., 83: 146 (1934)). These are standard procedures well-known to those skilled in the art. For determining antiprogestational (antagonist) activity, the test compound was given orally together with subcutaneous administration of progesterone. It was tested orally at 0.5, 1 and 2 mg total dose in estrogenprimed immature female rabbits that were simultaneously given subcutaneous progesterone. The rabbits, weighing about 1.5 kg, were primed with estrogen one a day for 6 days and then treated once a day for 5 days with 0.8 mg total dose of progesterone--i.e.160 μg/day--while at the same time giving the test compound orally once a day in a vehicle of 10% ethanol/sesame oil (0.5 mL volume). Necropsy was performed one day after the last dose. Uterine endometrial effects were scored according to McPhail and potency was evaluated by statistical comparison with the standard compound
17α-acetoxy-11β-[4-(N,N-dimethylamino)phenyl]-19-norpregna-4,9-diene-3,20-dione.

progestin receptor = assay: Receptor binding: relative binding activity (RBA) for progestin receptor, competition with 3H-R5020 in T-47D cells; details: T-47D human breast carcinoma cells; ratio of concentrations causing 50% displacement of 3H-R5020; percentage of reference standard R-5020
Method: Receptor Binding. The affinity of the compounds for hormone receptors was determined by standard procedures similar to those that have been described, inter alia, by Wagner et al., Proc. Natl. Acad. Sci., 93, 8739-8744 (1996) for COS-1 cells. The human breast carcinoma (T-47D) cell line was used to assess RBA for progestin receptor. The cell line used was obtained from ATCC (American Type Culture Collection) and stored frozen at -135° C. until a week before the assays were conducted. The cells were thawed and cultured to achieve the desired cell number (5 to 7 days on average). […] After incubation overnight, medium was removed, the cells were washed and solubilized and radioactivity was measured by liquid scintillation spectromctry. Nonspecific binding was determined by incubation with an excess of unlabeled R5020 and subtracted from total binding to calculate specific binding. […]
The percentage of specifically bound ^3 H-R5020 for each concentration tested was calculated and binding curves were generated by plotting the percentage of specifically bound ^3 H-R-5020 versus the concentration of the competitor. The relative binding activity (RBA) of the test compounds, relative to the reference standard (R5020) as well as the internal standard, was determined from the ratio of concentrations causing 50% displacement for each unknown and standard, and expressed as a percentage value. […]

[2] = from C. E. Cook et al, Human Reproduction, 9, Supplement 1, 32-39, June 1994; cited from earlier work

SMILES | antiprogestational potency relative to the standard compound ([1]; once a day for 5 days with subcutaneous progesterone, McPhail score, standard = 17α-acetoxy-11β-[4-(N,N-dimethylamino)phenyl]-19-norpregna-4,9-diene-3,20-dione) | antiprogestational potency relative to mifepristone ([1]; worked out from 5-fold versus standard and standard 3-fold versus mifepristone) | RBA (relative binding activity) relative to R-5020 (progestin receptor) | antiprogestational activity (in words) ([1]; estrogen-primed, progesterone-stimulated immature female rabbits) | antiprogestational potency relative to mifepristone [2]
CC#C[C@]1(C(C)=O)CC[C@H]2[C@@H]3CCC4=CC(=O)CCC4=C3[C@@H](c3ccc(N(C)C)cc3)C[C@@]21C [A-1, 11β-[4-(N,N-Dimethylamino)phenyl]-17α-(1-propynyl)-19-norpregna-4,9-diene-3,20-dione] | 5 fold | ≤ 15 fold | 313% |  | 
CC#C[C@]1(C(C)=O)CC[C@H]2[C@@H]3CCC4=CC(=O)CCC4=C3[C@@H](c3ccc(C(C)=O)cc3)C[C@@]21C [A-16, 11β-(4-Acetylphenyl)-17α-(1-propynyl)-19-norpregna-4,9-diene-3,20-dione] |  |  | 439% | had antiprogestational activity | 
CC(=O)O[C@]1(C(C)=O)CC[C@H]2[C@@H]3CCC4=CC(=O)CCC4=C3[C@@H](c3ccc(N(C)C)cc3)C[C@@]21C [standard compound, 17α-acetoxy-11β-[4-(N,N-dimethylamino)phenyl]-19-norpregna-4,9-diene-3,20-dione] |  |  |  |  | approximately 3 fold
